Key:
[1] = tested on: 293T cells transfected with NK1R; assay: SP-induced, NK1R-mediated cell death in 293T cells transfected with NK1R, trypan blue and staining; format: cell-based, human
Experimental: (§1) Human embryonic kidney 293T cells were grown as described in Example I. Transient transfection was performed using Superfect (Qiagen) as described by the manufacturer. Briefly, 2×10^5 cells/well were seeded into 35 mm wells 16 hr prior to transfection. Superfect:DNA complexes were added at a 5 μl:2 μg ratio for 3 hr; then the medium was replaced and after 24 hr SP was added. At 24–48 hr after addition of SP cell death was quantified as follows: the media containing floating cells were collected and centrifuged 10 min at 2000×g, the pellet was resuspended in PBS/trypan blue and the cells were counted using a hematocytometer. When other compounds were used, they were added at the same time as SP: zVAD.fmk or BAF was added at 50 μM and obtained from Enzyme System Products, Livermore, Calif.
Briefly, the method entailed cloning the full-length (1.2 kb) NK1R cDNA (Genbank Accession No. M31477) by RT-PCR from adult rat hippocampal RNA into the XbaI/EcoRI sites of the vector pcDNA3.1 (Invitrogen), using the following oligonucleotides: forward 5′[…] 3′ (SEQ ID NO:2); reverse 5′[…] 3′ (SEQ ID NO:3).
Cells were stained according to the manufacturer's instructions (Clontech). Briefly, cellswere washed with binding buffer and incubated with FITC-Annexin-V or EGFPAnnexin-V for 5–10 min and fixed with 4% paraformaldehyde.
Cells were fixed 10 min with 4% paraformaldehyde and stained according to the manufacturer's instructions (Promega).
(§2) The protein kinase inhibitors were added 30 min before SP exposure at the following concentrations: 10 μM Rp-8-Br-cAMPS (adenosin 3′,5′-cyclic monophosphorothioate, 8-bromo-, Rp-isomer, sodium salt) which is a PKA inhibitor; 50 nM Calphostin C, which is a PKC inhibitor; 10 μM PD 98059 which is a MAPKK (MEK) inhibitor. These compounds were obtained from Calbiochem. Viability was quantified by trypan blue staining of the total cell population.

[2] = tested on: ERK-1/2; assay: Western blot of ERK-1/2 phosphorylation in 293T cells expressing NK1R; format: cell-based, human; conditions: 10 μM
Experimental: For the transfected 293T cells, cells were washed with cold PBS after incubation with SP the time indicate and homogenized on lysis buffer (150 mM NaCl, 1% Triton X-100, 50 mM Tris HCL pH8.0). Cytoplasmic extracts were collected after 10 min centrifugation at 14,000 rcf. Total amount of protein was quantified by Bradford assay and electrophoresis of equal amounts of total protein was performed on SDS-polyacrylamide gels. Separated proteins were transferred to polyvinylidene fluoride membranes at 4° C. for Western blot analysis. Membranes were probed with a 1:1000 dilution of anti-ERK-1/2 or anti phospho-ERK-1/2 (BioSource). The blots were incubated in a horseradish peroxidase coupled secondary antibody for 1 h followed by enhanced chemiluminescence detection of the proteins with […]™ ECL detection (Amersham, Arlington Heights, Ill.). For striatal neurons, total ERK-1/2 was immunoprecipitated using superparamagnetic Microbeads conjugated to protein A, following manufacture's instructions (MACS, Miltenyi Biotec), and then developed by Western blot against either anti-ERK-1/2 or anti phospho-ERK-1/2.

[3] = tested on: striatal, cortical, and hippocampal neurons; assay: SP-induced cell death in primary striatal, cortical and hippocampal neurons, trypan blue viability and staining; format: cell-based, rat
Experimental: Rat neuronal primary cell cultures were also used to assay for inducers and inhibitors of paraptosis. Briefly, primary striatal, cortical and hippocampal cultures were prepared from 17-day-old Sprague-Dawley rat embryos (B&K). The tissue was dissected, minced and trypsinized for five minutes using 0.25% trypsin (Cell Grow). After the addition of 10% horse serum (Life Technologies) to inhibit the trypsin, the cell suspension was triturated 15–20 times with a 10 ml syringe and centrifuged for five minutes at 800×g. The pellet was resuspended in MEM-PAK (UCSF Cell Culture facility), supplemented with 2.02 gm glucose, 2 mM GLUTAMAX™ (Life Technologies) and penicillin/streptomycin (100 U/ml). The suspension was filtered through a […] cell strainer and the final culture medium contained 5% horse serum. Subsequently, 3-4×10^5 cells per Cm^2 were seeded onto either poly-D-lysine precoated 8-well chamber slides (Becton-Dickson Labware) or 96 well plates precoated with […] of poly-D-lysine (Sigma) in water. After 30 minutes of incubation time, unattached cells were removed together with the medium and replaced with glucose enriched MEM-PAK plus 5% horse serum. The cultures were then incubated at 37° C. in 95% air 5% carbon dioxide with 95% humidity. Cultures were used for experiments between day 1 and day 7 when glial contamination was at a minimum.
Primary neuronal cells were prepared as described in Example I. SP (SIGMA) at a concentration of 0.1 nM–100 μM was added 24–48 hrs after seeding, in the presence of 2.5% horse serum. When the cultures were maintained for more than 5 days, 10 μM cytosine arabinoside was added for 24 hours, beginning 3 days after plating the cells. Viability was quantified by trypan blue staining of the total cell population.
The following compounds were added at the same time as SP in the indicated experiments: 5 nM L-732, 138; 1 nM L-733,060; 1 μg/ml Actinomycin D or 1 μg/ml Cycloheximide. All of these compounds were obtained from SIGMA. The caspase inhibitors zVAD.fmk and BAF were added at 50 μM and obtained from Enzyme System Products, Livermore, Calif.
Either neuronal primary cultures or human embryonic kidney 293T cells were fixed with 4% paraformaldehyde and stained with 0.5 μg/ml DAPI (Molecular Probes) or Hoechst(SIGMA). […]
as §2

[4] = tested on: IGFIR-IC transfected 293T cells; assay: Inhibition of IGFIR-IC induced paraptosis in transfected 293T cells, LDH assay; format: cell-based, human
Experimental: Paraptosis was induced in 293T cells by expressing the intracellular domain of the insulin-like growth factor I receptor (IGFIR-IC) in these cells using transient transfection as described above.
(§3) Test compounds were added to IGFIR-IC transfected 293T cells at the time of transfection.
The TRAF2 dominant negative mutant contains a deletion of the amino terminal 271 amino acids of the protein. The ratio of IGFIR-IC:AIP1 and IGFIR-IC:TRAF2DN was 1:3. […] Antisense oligonucleotide constructs for JNK1 or JNK2 (50–100 nM) were transfected into 293T cells one day before transfection with the IGFIR-IC construct. For all inhibition assays, cell viability was measured using the LDH assay.

[5] = tested on: paraptosis; conditions: cited from earlier work
[6] = tested on: caspase-8 transfected cells; assay: Apoptosis induced by over-expression of caspase-8 in 293T cells; format: cell-based, human; conditions: caspase inhibitors at 50 μM
Experimental: as §1

[7] = tested on: paraptosis induced by caspase 7, caspase 8 or caspase 9; assay: Inhibition of paraptosis induced by caspases; format: cell-based
Experimental: as §3

[8] = tested on: 293T cells; assay: Induction of paraptosis in 293T cells, LDH cell death assay; format: cell-based, human; conditions: 293T cells
Experimental: Human embryonic kidney 293T cell line cells were used to assay for inducers and inhibitors of paraptosis. These cells were cultured in high glucose DMEM (Life Technologies) supplemented with 10% FBS (Sigma) and 1% penicillin/streptomycin (Life Technologies). The cultures were incubated at 37° C. in 95% air 5% carbon dioxide with 95% humidity.
(§4) Subsequently, compounds were added to 293T cells and/or rat neuronal primary cell culture cells in order to determine if the compounds could induce paraptosis. Cell death was assayed using the lactate dehydrogenase (LDH) assay, in which the relative amount of enzyme released from dying cells in the medium is measured by following the disappearance of nicotinamide adenine dinucleotide, reduced form (NADH) in the following reaction: pyruvate+NADH <−>NAD^++ lactate. Briefly, 50 μl of culture medium for either 293T cells or 100 μl of culture medium for neuronal primary culture were dispensed in a 96 well plate to which 100 μl of a solution consisting of 5 mg of NADH dissolved in 20 ml of PBS and 0.5 ml of 100 mM NaPyruvate. NADH disappearance was assessed by kinetic photmetric readings at a 340 nm wavelength at 19 minute intervals over a period of 2 hours and 30 minutes.
Constructs of pcDNA3 containing procaspase-7 or procaspase-8 were transiently transfected into 293T cells using Lipofect-Amine (GIBCO-BRL) according to the manufacturer's instructions. Briefly, 1×10^6 293T cells were seeded in 6 cm dishes, and transfected the next day using a ratio of DNA:Lipofect-Amine of 1 μg:5 μl. Transfection efficiency was 60–80% for 293T cells, as determined by X-gal staining after transfection of a β-galactosidase construct.

[9] = tested on: rat neuronal primary cell cultures; assay: Induction of paraptosis in rat neuronal primary cell cultures, LDH cell death assay; format: cell-based
Experimental: Rat neuronal primary cell cultures were also used to assay for inducers and inhibitors of paraptosis. Briefly, primary striatal, cortical and hippocampal cultures were prepared from 17-day-old Sprague-Dawley rat embryos (B&K). The tissue was dissected, minced and trypsinized for five minutes using 0.25% trypsin (Cell Grow). After the addition of 10% horse serum (Life Technologies) to inhibit the trypsin, the cell suspension was triturated 15–20 times with a 10 ml syringe and centrifuged for five minutes at 800×g. The pellet was resuspended in MEM-PAK (UCSF Cell Culture facility), supplemented with 2.02 gm glucose, 2 mM GLUTAMAX™ (Life Technologies) and penicillin/streptomycin (100 U/ml). […]
as §4, with “Briefly, 50 μl of culture medium for either 293T cells or 100 μl of culture medium for neuronal primary culture were dispensed in a 96 well plate to which 100 μl of a solution consisting of 5 mg of NADH dissolved in 20 ml of PBS and 0.5 ml of 100 mM NaPyruvate.” left out

[10] = tested on: SP-induced paraptosis; assay: Inhibition of SP-induced paraptosis, cells not specified; format: cell-based; conditions: concentration not given

In the case of `COc1cccc(-c2cc(=O)c3ccccc3o2)c1N` [PD 98059], the “effect on non-neuronal NK1R-mediated pcd” value ([1]; 10 μM) is reported as “inhibited”, the “effect on phosphorylation of ERK-1/2” value [2] is reported as “effectively reduced” and the “effect on neuronal cell death in response to SP” value ([3]; added 30 min before SP: 10 μM PD 98059, 50 nM Calphostin C, 10 μM Rp-8-Br-cAMPS) is reported as “completely blocked”. For the same molecule, the “effect on IGFIR-induced paraptosis” value ([4]; concentration not given) was “not blocked”.

In the case of `COC(=O)CC(NC(=O)OC(C)(C)C)C(=O)CF` (stereo not drawn) [BAF, Box-aspartyl.fmk], the “effect on NK1R-mediated cell death in 293T cells” value ([1]; caspase inhibitors at 50 μM) is given as “lack of effect”, the “effect of caspase inhibitors on paraptosis” value [5] is given as “lack of effect” and the “effect on SP-induced cell death in neurons” value ([3]; caspase inhibitors at 50 μM) is given as “not inhibited”. For the same molecule, the “effect on apoptosis induced by over-expression of caspase-8” value [6] was “completely abolished” and the “inhibition of paraptosis induction by caspase-7 and caspase-8” value [7] was “subject to inhibition”.

For `CCCCCCCCCCCCC/C=C/[C@@H](O)[C@H](CO)NC(C)=O` [C2 ceramide, N-Acetyl-D-sphingosine], the “concentration at which found to induce paraptosis” value [8] was 15 to 100 µM and the “concentration at which found to induce paraptosis” value [9] was 15 to 100 µM.

B1: AIP-1: Alg-2 interacting protein 1, co-transfected with the IGFIR-IC construct (protein, UniProt Q8WUM4 2-868, looked up)
Programmed cell death …: ATFISVQLKKTSEVDLAKPLVKFIQQTYPSGGEEQAQYCRAAEELSKLRRAAVGRPLDKHEGALETLLRYYDQICSIEPKFPFSENQICLTFTWKDAFDKGSLFGGSVKLALASLGYEKSCVLFNCAALASQIAAEQNLDNDEGLKIAAKHYQFASGAFLHIKETVLSALSREPTVDISPDTVGTLSLIMLAQAQEVFFLKATRDKMKDAIIAKLANQAADYFGDAFKQCQYKDTLPKEVFPVLAAKHCIMQANAEYHQSILAKQQKKFGEEIARLQHAAELIKTVASRYDEYVNVKDFSDKINRALAAAKKDNDFIYHDRVPDLKDLDPIGKATLVKSTPVNVPISQKFTDLFEKMVPVSVQQSLAAYNQRKADLVNRSIAQMREATTLANGVLASLNLPAAIEDVSGDTVPQSILTKSRSVIEQGGIQTVDQLIKELPELLQRNREILDESLRLLDEEEATDNDLRAKFKERWQRTPSNELYKPLRAEGTNFRTVLDKAVQADGQVKECYQSHRDTIVLLCKPEPELNAAIPSANPAKTMQGSEVVNVLKSLLSNLDEVKKEREGLENDLKSVNFDMTSKFLTALAQDGVINEEALSVTELDRVYGGLTTKVQESLKKQEGLLKNIQVSHQEFSKMKQSNNEANLREEVLKNLATAYDNFVELVANLKEGTKFYNELTEILVRFQNKCSDIVFARKTERDELLKDLQQSIAREPSAPSIPTPAYQSSPAGGHAPTPPTPAPRTMPPTKPQPPARPPPPVLPANRAPSATAPSPVGAGTAAPAPSQTPGSAPPPQAQGPPYPTYPGYPGYCQMPMPMGYNPYAYGQYNMPYPPVYHQSPGQAPYPGPQQPSYPFPQPPQQSYYPQQ
In the case of B1, the “inhibition of IGFIR-IC induced paraptosis” value ([4]; co-transfected with the IGFIR-IC construct, ratio 1:3) is reported as “able to inhibit IGFIR-IC induced paraptosis” and the “effect on SP-induced paraptosis” value [10] is reported as “can be inhibited”.

B2: p35: caspase inhibitor (protein, UniProt P08160 1-299, looked up)
Early 35 kDa protein: MCVIFPVEIDVSQTIIRDCQVDKQTRELVYINKIMNTQLTKPVLMMFNISGPIRSVTRKNNNLRDRIKSKVDEQFDQLERDYSDQMDGFHDSIKYFKDEHYSVSCQNGSVLKSKFAKILKSHDYTDKKSIEAYEKYCLPKLVDERNDYYVAVCVLKPGFENGSNQVLSFEYNPIGNKVIVPFAHEINDTGLYEYDVVAYVDSVQFDGEQFEEFVQSLILPSSFKNSEKVLYYNEASKNKSMIYKALEFTTESSWGKSEKYNWKIFCNGFIYDKKSKVLYVKLHNVTSALNKNVILNTIK
In the case of B2, the “effect of caspase inhibitors on paraptosis” value [5] is listed as “lack of effect” and the “inhibition of paraptosis induction by caspase-7 and caspase-8” value [7] is listed as “subject to inhibition”.

From US6994981B2, “Modulators of paraptosis and related methods” (The Buck Institute, priority 2002, dated 2006)
